Source: patent EP1097956A1, “Low endocrine disruptor polycarbonate resin” (Mitsubishi Gas Chemical Company, Inc., priority 1999, dated 2001)

test system: rat; assay: not given; conditions: cited from earlier work

SMILES	dosage by which the action like the female hormone was developed [mg/kg/day]
CC(C)(c1ccc(O)cc1)c1ccc(O)cc1 [BPA, 2,2-bis(4-hydroxyphenyl) propane]	800

biological target: T1, estrogen receptor (Rattus norvegicus, UniProt P06211); assay: estrogen receptor affinity by exchange curve method ([3H]-estradiol displacement, membrane specimen from rat uterus); format: binding; conditions: IC50, evaluated sample itself (bisphenols, phenols); concentration necessary to exchange 50% of estrogen bound receptor
T1 construct: from tissue; host or cells: uterus of matured female rat, homogenate supernatant (105,000 x G)
T1 sequence (P06211 1-600): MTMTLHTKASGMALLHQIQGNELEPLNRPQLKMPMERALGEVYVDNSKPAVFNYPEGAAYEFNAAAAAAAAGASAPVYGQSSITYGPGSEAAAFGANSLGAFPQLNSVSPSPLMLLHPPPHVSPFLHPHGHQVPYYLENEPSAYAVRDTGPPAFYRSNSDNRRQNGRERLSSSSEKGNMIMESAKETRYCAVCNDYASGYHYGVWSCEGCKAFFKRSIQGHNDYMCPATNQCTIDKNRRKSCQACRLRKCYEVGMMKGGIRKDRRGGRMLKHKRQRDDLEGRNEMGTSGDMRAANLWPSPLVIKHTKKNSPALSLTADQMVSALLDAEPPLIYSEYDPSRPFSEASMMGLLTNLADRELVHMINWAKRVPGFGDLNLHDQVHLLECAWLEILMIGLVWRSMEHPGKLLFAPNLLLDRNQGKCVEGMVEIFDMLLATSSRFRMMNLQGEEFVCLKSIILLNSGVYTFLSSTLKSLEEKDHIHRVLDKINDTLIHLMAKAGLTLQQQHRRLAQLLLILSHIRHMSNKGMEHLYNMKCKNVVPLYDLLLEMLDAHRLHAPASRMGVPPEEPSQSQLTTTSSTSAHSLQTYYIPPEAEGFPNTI
From the text: The smaller the numeral value, the higher is affinity between a chemical substance and estrogen receptor, i.e., the higher is so-called endocrine disruptor. […]
Appendix J and "Medication receptor" P33-34, edited by Kazunari Takayanagi, Nanzando in Japan.
Firstly, a matured female rat was butchered and then its uterus was taken out. Then, fatty portions adhered to tissue portion of the uterus were removed and the uterus removed fatty portions was weighed and then placed in ice. The tissue was sliced so as to form a corner of 1 to 2 mm and. The sliced tissue was put in a Polytron homogenizer cooled in advance in ice and ice cooled TEDG buffer solution (10 mM tris·HCl((pH 7.6), 1.5 mM EDTA, 1 mM DTT and 10 % Glycerol) of 1.0 ml per 50 mg of tissue was added therein and homogenized for 5 seconds. The homogenate was put in a centrifugal tube cooled in advance and centrifuged for 60 minutes at 105,000×G(gravitational unit), whereby a supernatant liquid was obtained as a membrane specimen containing estrogen receptor.
Each the reaction solution thus prepared was vacuum dried and then placed in ice.
1 ml of the above-prepared supernatant liquid of homoginate containing estrogen receptor was added to each tube and softly stirred and then each tube was capped to incubate at 4 °C for 20 hours. Each mixed solution was poured on a filter attached a glass filter paper and aspiration filtered and then the glass filter paper was rinsed with an ice cooled rinsing buffer solution (50 mM Tris·HCl (pH7.6)). Each the glass filter paper was dried and then each radioactivity was measured with a liquid scintillation counter.

SMILES	IC50 [µM]
CC(C)(c1ccc(O)cc1)c1cccc(C(C)(C)c2ccc(O)cc2)c1 [BPM, 4,4'-[1,3-phenylenebis(1-methylethylidene)] bisphenol]	< 0.289
CC1CC(C)(C)CC(c2ccc(O)cc2)(c2ccc(O)cc2)C1 (centres unmarked) [TMBPZ, 3,3,5-trimethyl-1,1-bis(4-hydroxyphenyl)cyclohexane]	< 0.322
CCCCCCCCCc1ccc(O)cc1 [NP, 4-nonylphenol]	4.08
Cc1cc(C2(c3ccc(O)c(C)c3)c3ccccc3-c3ccccc32)ccc1O [BCFL, 9,9-bis(3-methyl-4-hydroxyphenyl) fluorene]	> 264
C=C(CC(C)(C)c1ccc(O)cc1)c1ccc(O)cc1 [PIPLD, 4-methyl-2,4-bis(4-hydroxyphenyl)-1-pentene]	< 0.373
Oc1ccc(C2(c3ccc(O)cc3)CCCCC2)cc1 [BPZ, 1,1-bis(4-hydroxyphenyl) cyclohexane]	< 0.373
CC(C)(C)c1ccc(O)cc1 [p-t-butyl phenol]	173
Oc1ccc(C(c2ccccc2)(c2ccccc2)c2ccc(O)cc2)cc1 [BPBP, bis(4-hydroxyphenyl)diphenyl methane]	6.53

same assay, conditions: evaluated sample itself (bisphenols, phenols); concentration necessary to exchange 50% of estrogen bound receptor; read-out: IC50 (converted)

SMILES	IC50 [µM]
Oc1ccc(Cc2ccc(O)cc2)cc1 [BPF, bis(4-hydroxyphenyl)methane]	6.99
CC(c1ccccc1)(c1ccc(O)cc1)c1ccc(O)cc1 [BPAP, 1,1-bis(4-hydroxyphenyl)-1-phenylethane]	1.72
Oc1ccc(C2(c3ccc(O)cc3)c3ccccc3-c3ccccc32)cc1 [BPFL, 9,9-bis(4-hydroxyphenyl) fluorene]	< 8.85
CC(C)(c1ccc(O)cc1)c1ccc(O)cc1 [BPA, 2,2-bis(4-hydroxyphenyl) propane]	32
CC1(C)CC2(CC(C)(C)c3ccc(O)cc32)c2cc(O)ccc21 [SPI, 6,6'-dihydroxy-3,3,3',3'-tetramethyl-1, 1'-spiro biindan]	2.92
Oc1ccc(C(c2ccc(O)cc2)(C(F)(F)F)C(F)(F)F)cc1 [BPAF, 2,2-bis(4-hydroxyphenyl) hexafluoropropane]	< 0.297
Cc1cc(C2(c3cc(C)c(O)c(C)c3)c3ccccc3-c3ccccc32)cc(C)c1O [BXFL, 9,9-bis(4-hydroxy-3,5-dimethylphenyl) fluorene]	< 4.18
Oc1ccc(Sc2ccc(O)cc2)cc1 [TDP, bis(4-hydroxyphenyl) sulfide]	< 0.458

test system: pregnant mice; assay: not given; conditions: 2 and 20 µg/kg/day dosed orally to pregnant mice; cited from earlier work

SMILES	efficiency of sperm production in male offspring	prostate weights in male offspring
CC(C)(c1ccc(O)cc1)c1ccc(O)cc1 [BPA, 2,2-bis(4-hydroxyphenyl) propane]	decrease in the efficiency of sperm production	increase in prostate weights

test system: not given; assay: not given; conditions: stipulated by the U. S. Environmental Protection Agency and the Japanese Ministry of Health and Welfare; cited from earlier work

SMILES	acceptabel daily intake [µg/kg/day]
CC(C)(c1ccc(O)cc1)c1ccc(O)cc1 [BPA, 2,2-bis(4-hydroxyphenyl) propane]	50
